Data from ChEMBL document CHEMBL4017444, “Development of N-hydroxycinnamamide-based HDAC inhibitors with improved HDAC inhibitory activity and in vitro antitumor activity” (Bioorg Med Chem, 2017).

Assays:
[1] = Inhibition of HDAC in human HeLa cell nuclear extracts using (Boc-Lys(Ac)-AMC as substrate preincubated for 5 mins followed by substrate addition measured after 30 mins by fluorescence assay; format: cell-based
Histone deacetylase 2 = Histone deacetylase 2 (Homo sapiens, UniProt Q92769); assay: Inhibition of HDAC2 (unknown origin) using Ac-Leu-GlyLys(Ac)-AMC as substrate preincubated for 5 mins followed by substrate addition measured after 30 mins by fluorescence assay
Histone deacetylase 1 = Histone deacetylase 1 (Homo sapiens, UniProt Q13547); assay: Inhibition of HDAC1 (unknown origin) using Ac-Leu-GlyLys(Ac)-AMC as substrate preincubated for 5 mins followed by substrate addition measured after 30 mins by fluorescence assay
PC-3 = assay: Antiproliferative activity against human PC3 cells after 48 hrs by MTT assay; format: functional, cell-based; settings: PC-3, 48 h
HeLa = assay: Antiproliferative activity against human HeLa cells after 48 hrs by MTT assay; format: functional, cell-based
HEL = assay: Antiproliferative activity against human HEL cells after 48 hrs by MTT assay; format: functional, cell-based
Histone deacetylase 3 = Histone deacetylase 3 (Homo sapiens, UniProt O15379); assay: Inhibition of HDAC3 (unknown origin) using Ac-Leu-GlyLys(Ac)-AMC as substrate preincubated for 5 mins followed by substrate addition measured after 30 mins by fluorescence assay
K562 = assay: Antiproliferative activity against human K562 cells after 48 hrs by MTT assay; format: functional, cell-based; settings: K562, 48 h
MOLT-4 = assay: Antiproliferative activity against human MOLT4 cells after 48 hrs by MTT assay; format: functional, cell-based; settings: MOLT-4, 48 h
[2] = target: T1, Protein deacetylase HDAC6 (Homo sapiens, UniProt Q9UBN7); assay: Inhibition of HDAC6 (unknown origin) using Ac-Leu-GlyLys(Ac)-AMC as substrate preincubated for 5 mins followed by substrate addition measured after 30 mins by fluorescence assay
T1 sequence (Q9UBN7 whole entry): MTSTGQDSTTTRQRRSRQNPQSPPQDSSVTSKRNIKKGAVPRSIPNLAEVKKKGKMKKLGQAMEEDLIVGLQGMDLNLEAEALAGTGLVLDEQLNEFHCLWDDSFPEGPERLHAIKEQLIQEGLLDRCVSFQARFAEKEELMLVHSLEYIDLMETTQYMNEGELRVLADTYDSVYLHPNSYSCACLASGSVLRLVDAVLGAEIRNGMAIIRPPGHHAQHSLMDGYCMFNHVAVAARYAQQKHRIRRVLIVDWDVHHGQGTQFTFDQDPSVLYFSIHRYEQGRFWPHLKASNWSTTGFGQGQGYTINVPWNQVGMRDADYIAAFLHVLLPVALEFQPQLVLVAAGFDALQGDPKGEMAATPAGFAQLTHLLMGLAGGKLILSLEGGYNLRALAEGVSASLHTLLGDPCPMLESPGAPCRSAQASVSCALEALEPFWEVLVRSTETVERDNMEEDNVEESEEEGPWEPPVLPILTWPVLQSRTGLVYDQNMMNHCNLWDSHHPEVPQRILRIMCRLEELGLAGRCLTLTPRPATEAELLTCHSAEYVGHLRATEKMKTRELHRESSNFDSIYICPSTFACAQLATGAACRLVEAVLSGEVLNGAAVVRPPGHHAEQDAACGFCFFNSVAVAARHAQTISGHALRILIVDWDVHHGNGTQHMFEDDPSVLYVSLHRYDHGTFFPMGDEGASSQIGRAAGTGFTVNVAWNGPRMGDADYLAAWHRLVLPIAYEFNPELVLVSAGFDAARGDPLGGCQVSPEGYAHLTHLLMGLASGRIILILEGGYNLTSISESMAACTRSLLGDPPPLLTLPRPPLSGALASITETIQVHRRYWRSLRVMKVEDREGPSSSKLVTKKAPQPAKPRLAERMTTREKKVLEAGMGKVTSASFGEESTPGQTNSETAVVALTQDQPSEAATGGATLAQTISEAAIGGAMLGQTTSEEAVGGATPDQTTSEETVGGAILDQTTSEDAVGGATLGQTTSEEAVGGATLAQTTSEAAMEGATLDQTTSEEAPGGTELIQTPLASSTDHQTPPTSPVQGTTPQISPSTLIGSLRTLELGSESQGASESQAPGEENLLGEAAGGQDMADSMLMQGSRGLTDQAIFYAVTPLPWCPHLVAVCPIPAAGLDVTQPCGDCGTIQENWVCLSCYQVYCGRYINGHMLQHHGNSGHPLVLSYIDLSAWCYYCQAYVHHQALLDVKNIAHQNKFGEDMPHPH

Histone deacetylase 1, sequence (Q13547 whole entry): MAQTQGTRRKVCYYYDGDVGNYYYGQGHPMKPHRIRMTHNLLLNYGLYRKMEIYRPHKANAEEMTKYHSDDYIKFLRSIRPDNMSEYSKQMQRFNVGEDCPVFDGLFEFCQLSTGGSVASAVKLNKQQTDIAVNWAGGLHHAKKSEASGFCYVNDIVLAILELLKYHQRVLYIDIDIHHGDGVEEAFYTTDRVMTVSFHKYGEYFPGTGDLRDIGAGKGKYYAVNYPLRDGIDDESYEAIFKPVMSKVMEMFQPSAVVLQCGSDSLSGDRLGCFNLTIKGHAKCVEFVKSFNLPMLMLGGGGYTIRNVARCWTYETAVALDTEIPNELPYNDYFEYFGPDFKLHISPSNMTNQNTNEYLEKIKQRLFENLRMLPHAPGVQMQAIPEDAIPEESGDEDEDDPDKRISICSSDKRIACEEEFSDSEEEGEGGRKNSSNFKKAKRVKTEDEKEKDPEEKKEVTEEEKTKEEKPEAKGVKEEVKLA
Histone deacetylase 3, sequence (O15379 whole entry): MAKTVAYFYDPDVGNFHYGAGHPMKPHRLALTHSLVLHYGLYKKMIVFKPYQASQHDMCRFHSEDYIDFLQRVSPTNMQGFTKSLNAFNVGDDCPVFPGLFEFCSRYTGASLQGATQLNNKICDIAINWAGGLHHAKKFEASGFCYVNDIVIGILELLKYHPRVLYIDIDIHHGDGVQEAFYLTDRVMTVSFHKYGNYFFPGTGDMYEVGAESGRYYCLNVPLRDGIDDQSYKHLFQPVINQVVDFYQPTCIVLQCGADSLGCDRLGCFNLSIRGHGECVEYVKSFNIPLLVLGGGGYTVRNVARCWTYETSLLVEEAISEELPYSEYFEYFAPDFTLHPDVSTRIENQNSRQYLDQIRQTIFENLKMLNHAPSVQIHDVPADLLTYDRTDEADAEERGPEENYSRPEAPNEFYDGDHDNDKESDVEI
Histone deacetylase 2, sequence (Q92769 whole entry): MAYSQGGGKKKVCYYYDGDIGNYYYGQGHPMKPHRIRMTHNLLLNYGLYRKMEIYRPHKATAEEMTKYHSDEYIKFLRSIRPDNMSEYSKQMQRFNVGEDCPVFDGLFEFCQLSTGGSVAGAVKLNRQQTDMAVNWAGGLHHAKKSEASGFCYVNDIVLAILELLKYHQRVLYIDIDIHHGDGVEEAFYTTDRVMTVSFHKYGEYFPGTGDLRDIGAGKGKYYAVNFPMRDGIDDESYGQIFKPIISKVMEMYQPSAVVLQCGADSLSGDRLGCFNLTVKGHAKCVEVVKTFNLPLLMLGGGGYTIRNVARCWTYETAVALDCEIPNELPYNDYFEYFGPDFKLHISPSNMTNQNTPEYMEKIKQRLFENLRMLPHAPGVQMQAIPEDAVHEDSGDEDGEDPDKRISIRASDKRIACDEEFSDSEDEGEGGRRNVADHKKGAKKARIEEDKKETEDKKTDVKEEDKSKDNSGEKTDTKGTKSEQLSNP

COc1cc(/C=C/C(=O)NO)ccc1OC[C@H](Cc1c[nH]c2ccccc12)NC(=O)c1ccccc1F
IC50 [1]: 76.5 nM

COc1ccc(C(=O)N[C@H](COc2ccc(/C=C/C(=O)NO)cc2OC)Cc2c[nH]c3ccccc23)cc1
IC50 (Histone deacetylase 2): 59.5 nM | IC50 (Histone deacetylase 1): 17.5 nM | IC50 (PC-3): 1000 nM | IC50 (HeLa): 430 nM | IC50 [1]: 9.6 nM | IC50 (HEL): 130 nM | IC50 (Histone deacetylase 3): 7.1 nM | IC50 (K562): 280 nM | IC50 (MOLT-4): 60 nM | IC50 [2]: 87 nM

COc1cc(/C=C/C(=O)NO)ccc1OC[C@H](Cc1c[nH]c2ccccc12)NC(=O)CCc1ccccc1
IC50 [1]: 21.7 nM

COc1cccc(C(=O)N[C@H](COc2ccc(/C=C/C(=O)NO)cc2OC)Cc2c[nH]c3ccccc23)c1
IC50 [1]: 14.1 nM

COc1cc(/C=C/C(=O)NO)ccc1OC[C@H](Cc1c[nH]c2ccccc12)NC(=O)c1ccc(Br)cc1
IC50 (PC-3): 1250 nM | IC50 (HeLa): 580 nM | IC50 [1]: 12.1 nM | IC50 (HEL): 210 nM | IC50 (K562): 510 nM | IC50 (MOLT-4): 60 nM

COc1cc(/C=C/C(=O)NO)ccc1OC[C@H](Cc1c[nH]c2ccccc12)NC(=O)c1ccccc1
IC50 [1]: 15.8 nM

COc1cc(/C=C/C(=O)NO)ccc1OC[C@H](Cc1c[nH]c2ccccc12)NC(=O)c1cccc(Cl)c1
IC50 (PC-3): 1000 nM | IC50 (HeLa): 430 nM | IC50 [1]: 14.4 nM | IC50 (HEL): 130 nM | IC50 (K562): 280 nM | IC50 (MOLT-4): 60 nM

COc1cc(/C=C/C(=O)NO)ccc1OC[C@H](Cc1c[nH]c2ccccc12)NC(=O)c1ccc(Cl)cc1Cl
IC50 [1]: 95 nM

COc1cc(/C=C/C(=O)NO)ccc1OC[C@H](Cc1c[nH]c2ccccc12)NC(=O)c1ccccc1[N+](=O)[O-]
IC50 [1]: 75.7 nM

COc1cc(/C=C/C(=O)NO)ccc1OC[C@H](Cc1c[nH]c2ccccc12)NC(=O)c1ccccc1C
IC50 [1]: 102 nM

COc1cc(/C=C/C(=O)NO)ccc1OC[C@H](Cc1c[nH]c2ccccc12)NC(=O)CCCc1ccccc1
IC50 [1]: 42.4 nM

COc1cc(/C=C/C(=O)NO)ccc1OC[C@H](Cc1c[nH]c2ccccc12)NC(=O)c1cccc(F)c1
IC50 [1]: 60 nM

COc1cc(/C=C/C(=O)NO)ccc1OC[C@H](Cc1c[nH]c2ccccc12)NC(=O)Cc1ccccc1
IC50 [1]: 54.8 nM

COc1cc(/C=C/C(=O)NO)ccc1OC[C@H](Cc1c[nH]c2ccccc12)NC(=O)c1ccccc1Br
IC50 [1]: 62.2 nM

COc1cc(/C=C/C(=O)NO)ccc1OC[C@H](Cc1c[nH]c2ccccc12)NC(=O)c1ccc(F)cc1
IC50 [1]: 48.6 nM

COc1cc(/C=C/C(=O)NO)ccc1OC[C@H](Cc1c[nH]c2ccccc12)NC(=O)c1ccc([N+](=O)[O-])cc1
IC50 [1]: 60.7 nM

COc1cc(/C=C/C(=O)NO)ccc1OC[C@H](Cc1c[nH]c2ccccc12)NC(=O)c1ccc(C)cc1
IC50 (PC-3): 1090 nM | IC50 (HeLa): 310 nM | IC50 [1]: 8.1 nM | IC50 (HEL): 150 nM | IC50 (K562): 320 nM | IC50 (MOLT-4): 40 nM

COc1cc(/C=C/C(=O)NO)ccc1OC[C@H](Cc1c[nH]c2ccccc12)NC(=O)c1ccc(Br)cc1Cl
IC50 [1]: 114 nM

COc1cc(/C=C/C(=O)NO)ccc1OC[C@H](Cc1c[nH]c2ccccc12)NC(=O)c1ccccc1Cl
IC50 [1]: 22.5 nM

COc1cc(/C=C/C(=O)NO)ccc1OC[C@H](Cc1c[nH]c2ccccc12)NC(=O)c1ccccc1OC
IC50 [1]: 60 nM

COc1cc(/C=C/C(=O)NO)ccc1OC[C@H](Cc1c[nH]c2ccccc12)NC(=O)c1ccc(NC(C)=O)cc1O
IC50 [1]: 47.1 nM

COc1cc(/C=C/C(=O)NO)ccc1OC[C@H](Cc1c[nH]c2ccccc12)NC(=O)c1cccc([N+](=O)[O-])c1
IC50 [1]: 34.4 nM

COc1cc(/C=C/C(=O)NO)ccc1OC[C@H](Cc1c[nH]c2ccccc12)NC(=O)c1ccc(Cl)cc1
IC50 [1]: 23.3 nM

COc1cc(/C=C/C(=O)NO)ccc1OC[C@H](Cc1c[nH]c2ccccc12)NC(=O)c1cccc(Br)c1
IC50 [1]: 19.5 nM

COc1cc(/C=C/C(=O)NO)ccc1OC[C@H](Cc1c[nH]c2ccccc12)NC(=O)c1cccc(C)c1
IC50 [1]: 24.2 nM
